The NIST ThermoML archive (doi:10.1021/je900903w)

Test: mn = molality of the nth substance listed, in mol/kg
Conditions: 101 kPa, Liquid; for molar conductivity: Alternating current cell with electrodes

O=C[O-].[Na+] [sodium methanoate] + O
Conditions	mass density, 298.15 K [kg/m3]	molar conductivity, 278.15 K [S·m2/mol]	molar conductivity, 283.15 K [S·m2/mol]	molar conductivity, 288.15 K [S·m2/mol]	molar conductivity, 293.15 K [S·m2/mol]	molar conductivity, 298.15 K [S·m2/mol]	molar conductivity, 303.15 K [S·m2/mol]	molar conductivity, 308.15 K [S·m2/mol]	molar conductivity, 313.15 K [S·m2/mol]
m1 = 0.0002873	–	0.00626	0.007191	0.008167	0.009185	0.01025	0.01134	0.01247	0.01358
m1 = 0.0003841	–	0.006215	0.007142	0.00813	0.009157	0.01022	0.01133	0.01246	0.01356
m1 = 0.0005247	–	0.006187	0.007111	0.008093	0.009118	0.01018	0.01128	0.01243	0.01351
m1 = 0.0005682	–	0.006178	0.007106	0.008083	0.009103	0.01017	0.01126	0.01238	0.01348
m1 = 0.0006608	–	0.006158	0.007081	0.008058	0.009078	0.01014	0.01124	0.01237	0.01347
m1 = 0.0008201	–	0.006134	0.007053	0.008027	0.009042	0.0101	0.0112	0.01234	0.01345
m1 = 0.0008629	–	0.006107	0.007049	0.008019	0.009031	0.01009	0.01118	0.01231	0.01344
m1 = 0.0009581	–	0.006095	0.007021	0.007988	0.009	0.01005	0.01115	0.01228	0.01341
m1 = 0.001119	–	0.006088	0.007002	0.007965	0.008975	0.01002	0.01111	0.01224	0.0134
m1 = 0.001188	–	0.006075	0.007	0.007964	0.008973	0.01002	0.01111	0.01224	0.01338
m1 = 0.001257	–	0.006054	0.006986	0.007948	0.008957	0.01001	0.0111	0.01223	0.01337
m1 = 0.001548	–	0.006043	0.006974	0.007934	0.008938	0.009988	0.01107	0.01219	0.01332
m1 = 0.001921	–	0.006045	0.006953	0.007912	0.008914	0.009962	0.01105	0.01216	0.01327
m1 = 0.002391	–	0.006033	0.006939	0.007896	0.008898	0.009943	0.01103	0.01213	0.01325
m1 = 0.003024	–	0.006025	0.006923	0.007876	0.008874	0.009917	0.011	0.0121	0.0132
m1 = 0.003744	–	0.006001	0.006901	0.007852	0.008827	0.009883	0.01096	0.01205	0.01315
m1 = 0.004567	–	0.00598	0.006877	0.007823	0.008811	0.009845	0.01092	0.01202	0.01313
m1 = 0.005591	997.307	0.005949	0.006841	0.007783	0.008767	0.009794	0.01086	0.01196	0.01306
m1 = 0.1222	1002.23	–	–	–	–	–	–	–	–
